Drawing on patent publication US20250195513A1, “DEGRADATION OF IRAK4 BY CONJUGATION OF IRAK4 INHIBITORS WITH E3 LIGASE LIGAND AND METHODS OF USE” (BeiGene, Ltd., priority 2022, published 2025), this text covers Dmax and DC50 for 11 molecules.

Like-named read-outs stand apart in the source and are kept apart here.

This experiment has as its target T1, IRAK4 (Homo sapiens, UniProt Q9NWZ3).
T1 construct: endogenous in cells; host or cells: Karpas299
T1 sequence (Q9NWZ3 1-460): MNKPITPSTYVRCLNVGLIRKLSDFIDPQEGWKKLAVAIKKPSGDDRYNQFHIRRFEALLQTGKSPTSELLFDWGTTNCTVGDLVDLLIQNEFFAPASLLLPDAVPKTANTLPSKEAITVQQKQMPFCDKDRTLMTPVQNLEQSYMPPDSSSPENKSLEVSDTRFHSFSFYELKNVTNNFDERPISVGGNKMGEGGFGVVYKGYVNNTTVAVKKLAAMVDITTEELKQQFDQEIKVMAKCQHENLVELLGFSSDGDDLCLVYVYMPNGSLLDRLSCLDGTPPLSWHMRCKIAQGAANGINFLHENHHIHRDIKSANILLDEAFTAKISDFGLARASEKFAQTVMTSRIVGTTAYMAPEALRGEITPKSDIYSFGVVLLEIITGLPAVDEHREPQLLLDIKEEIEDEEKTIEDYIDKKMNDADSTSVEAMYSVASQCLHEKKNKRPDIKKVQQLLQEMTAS
Nature of the experiment: IRAK4 Degradation Assay (Karpas299, HTRF/TR-FRET). It is filed as cell-based. The procedure, abridged: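 Karpas299 cells at 0.2 million per well were exposed to serially diluted compounds for 24 h or 5 h, then lysed. IRAK4 remaining in lysates was quantified by HTRF (665/620 nm) after overnight antibody incubation at room temperature. Percent degradation was fitted to a four-parameter curve to give IC50 (DC50).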

Where [1] appears, read: Karpas-299 cells, 24 h treatment, maximum percentage of degradation, read-out: IRAK4 in Karpas-299 (24 h) Dmax (%).
Where [2] appears, read: Karpas-299 cells, 24 h treatment, read-out: IRAK4 in Karpas-299 (24 h) DC50.
The mark [3] stands for this setting: Degradation (Karpas-299), comparison table, Linker Type A, read-out: Compound (Linker Type A) DC50.
Setting [4] is: Degradation (Karpas-299), comparison table, Linker Type A, read-out: Compound (Linker Type A) Dmax (%).
[5] abbreviates: Karpas-299 cells, 5 h treatment, maximum percentage of degradation, read-out: IRAK4 in Karpas-299 (5 h) Dmax (%).
Setting [6] is: Karpas-299 cells, 5 h treatment, read-out: IRAK4 in Karpas-299 (5 h) DC50.

As usually defined, the Dmax is the largest share of the target that was removed. As a reminder, the DC50 is the concentration giving 50% degradation.

Consider `CC(C)(O)c1cc2nn(C3CCN(C4CCN(C(=O)C5CN(c6cc(F)c([C@H]7CCC(=O)NC7=O)c(F)c6)C5)CC4)CC3)cc2cc1NC(=O)c1cccn(C2CC2)c1=O` [Example 117, (R)-1-cyclopropyl-N-(2-(1′-(1-(4-(2,6-dioxopiperidin-3-yl)-3,5-difluorophenyl)azetidine-3-carbonyl)-[1,4′-bipiperidin]-4-yl)-6-(2-hydroxypropan-2-yl)-2H-indazol-5-yl)-2-oxo-1,2-dihydropyridine-3-carboxamide], for which, under setting [1], the Dmax was determined as 78%. The DC50 under setting [2] is 4.2 nM.
The corresponding values for `CC(C)(O)c1cc2nn(C34CCC(N5CCN(C(=O)C6CN(c7cc(F)c([C@H]8CCC(=O)NC8=O)c(F)c7)C6)CC5)(CC3)CC4)cc2cc1NC(=O)c1ccc2cc(C#N)cnn12` [Example 149, (R)-3-cyano-N-(2-(4-(4-(1-(4-(2,6-dioxopiperidin-3-yl)-3,5-difluorophenyl)azetidine-3-carbonyl)piperazin-1-yl)bicyclo[2.2.2]octan-1-yl)-6-(2-hydroxypropan-2-yl)-2H-indazol-5-yl)pyrrolo[1,2-b]pyridazine-7-carboxamide] are 97% and 0.3 nM.
On to `NC(=O)c1nn([C@H]2CC[C@H](N3CCN(C4CC(c5ccc(N[C@H]6CCC(=O)NC6=O)cc5)C4)CC3)CC2)cc1NC(=O)c1coc(-c2ccnc(NCC(F)(F)F)c2)n1` (stereo partly drawn) [Example 10, N-(3-carbamoyl-1-((1r,4r)-4-(4-(3-(4-(((S)-2,6-dioxopiperidin-3-yl)amino)phenyl)cyclobutyl)piperazin-1-yl)cyclohexyl)-1H-pyrazol-4-yl)-2-(2-((2,2,2-trifluoroethyl)amino)pyridin-4-yl)oxazole-4-carboxamide], for which the Dmax under setting [1] amounted to 92%. Under setting [2], the DC50 was determined as 5.4 nM.
Regarding `N#Cc1cnn2c(C(=O)Nc3cc4cn([C@H]5CC[C@H](N6CCN(C7CN(c8cc(F)c([C@H]9CCC(=O)NC9=O)c(F)c8)C7)CC6)CC5)nc4c4c3OC(F)(F)O4)ccc2c1` [Example 385, 3-cyano-N-(2-((1R,4r)-4-(4-(1-(4-((R)-2,6-dioxopiperidin-3-yl)-3,5-difluorophenyl)azetidin-3-yl)piperazin-1-yl)cyclohexyl)-7,7-difluoro-2H-[1,3]dioxolo[4,5-g]indazol-5-yl)pyrrolo[1,2-b]pyridazine-7-carboxamide], under setting [1], the Dmax was found to be 91%. Moreover, under setting [2], the DC50 worked out at 4.8 nM.
The corresponding values for `CC(C)(O)c1cc2nn(C3CCN([C@@H]4CCN(C(=O)C5CN(c6cc(F)c([C@H]7CCC(=O)NC7=O)c(F)c6)C5)CC4(F)F)CC3)cc2cc1NC(=O)c1ccc2cc(C#N)cnn12` [Example 288, 3-cyano-N-(2-((R)-1′-(1-(4-((R)-2,6-dioxopiperidin-3-yl)-3,5-difluorophenyl)azetidine-3-carbonyl)-3′,3′-difluoro-[1,4′-bipiperidin]-4-yl)-6-(2-hydroxypropan-2-yl)-2H-indazol-5-yl)pyrrolo[1,2-b]pyridazine-7-carboxamide] are 96% and 2.3 nM.
As for `O=C1CCN(c2ccc(N3CC(N4CCN(C[C@H]5CC[C@H](n6cc(NC(=O)c7coc(-c8ccnc(NCC(F)(F)F)c8)n7)c(C(F)F)n6)CC5)CC4)C3)cc2)C(=O)N1` [Example 3, N-(3-(difluoromethyl)-1-((1r,4r)-4-((4-(1-(4-(2,4-dioxotetrahydropyrimidin-1(2H)-yl)phenyl)azetidin-3-yl)piperazin-1-yl)methyl)cyclohexyl)-1H-pyrazol-4-yl)-2-(2-((2,2,2-trifluoroethyl)amino)pyridin-4-yl)oxazole-4-carboxamide], the DC50 under setting [3] was above 10000 nM and the DC50 under setting [2] was above 10000 nM. Further, the Dmax was determined as 9% under setting [4] and 9% under setting [1].
On to `O=C1CCN(c2ccc(N3CCC(N4CCN(C[C@H]5CC[C@H](n6cc(NC(=O)c7coc(-c8ccnc(NCC(F)(F)F)c8)n7)c(C(F)F)n6)CC5)CC4)CC3)cc2)C(=O)N1` [Example 2, N-(3-(difluoromethyl)-1-((1r,4r)-4-((4-(1-(4-(2,4-dioxotetrahydropyrimidin-1(2H)-yl)phenyl)piperidin-4-yl)piperazin-1-yl)methyl)cyclohexyl)-1H-pyrazol-4-yl)-2-(2-((2,2,2-trifluoroethyl)amino)pyridin-4-yl)oxazole-4-carboxamide], for which the DC50 was above 10000 nM under setting [3] and above 10000 nM under setting [2]. Also, the Dmax turned out to be 6.5% under setting [4] and 6.5% under setting [1].
`O=C1CC[C@H](c2c(F)cc(N3CC(C(=O)N4CCN([C@H]5CC[C@H](n6cc7cc(NC(=O)c8cccc(C(F)(F)F)n8)c(C(=O)N[C@H]8C[C@H](CO)C8)cc7n6)CC5)CC4)C3)cc2F)C(=O)N1` [Example 167, 2-((1r,4R)-4-(4-(1-(4-((R)-2,6-dioxopiperidin-3-yl)-3,5-difluorophenyl)azetidine-3-carbonyl)piperazin-1-yl)cyclohexyl)-N-((1r,3R)-3-(hydroxymethyl)cyclobutyl)-5-(6-(trifluoromethyl)picolinamido)-2H-indazole-6-carboxamide]: the Dmax under setting [5] worked out at 94% and the Dmax under setting [1] came to 99%. For the same molecule, the DC50 under setting [6] came out at 5.3 nM and the DC50 under setting [2] was determined as 0.8 nM.
The corresponding values for `COc1cc2nn([C@H]3CC[C@H](NC(=O)C4CCN(c5ccc6c(c5)C(=O)N(C5CCC(=O)NC5=O)C6=O)CC4)CC3)cc2cc1NC(=O)c1cccc(C(F)(F)F)n1` (some centres unmarked) [Example 32, N-(2-((1r,4r)-4-(1-(2-(2,6-dioxopiperidin-3-yl)-1,3-dioxoisoindolin-5-yl)piperidine-4-carboxamido)cyclohexyl)-6-methoxy-2H-indazol-5-yl)-6-(trifluoromethyl)picolinamide] are 91%, 95%, 15 nM and 2.7 nM.
As to `O=C1CC[C@H](c2c(F)cc(N3CC(C(=O)N4CCN([C@H]5CC[C@H](n6cc(NC(=O)c7cnn(-c8ccnc(NCC(F)(F)F)c8)n7)c(C(F)F)n6)CC5)CC4)C3)cc2F)C(=O)N1` [Example 51, N-(3-(difluoromethyl)-1-((1r,4r)-4-(4-(1-(4-((R)-2,6-dioxopiperidin-3-yl)-3,5-difluorophenyl)azetidine-3-carbonyl)piperazin-1-yl)cyclohexyl)-1H-pyrazol-4-yl)-2-(2-((2,2,2-trifluoroethyl)amino)pyridin-4-yl)-2H-1,2,3-triazole-4-carboxamide], the Dmax under setting [5] turned out to be 93% and the Dmax under setting [1] is 96%. The DC50 by setting is: under setting [6], 4.8 nM; under setting [2], 1.2 nM.
For `O=C1CCN(c2ccc(N3CC(C(=O)N4CCN([C@H]5CC[C@H](n6cc(NC(=O)c7coc(-c8ccnc(NCC9CC9)c8)n7)c(C(F)F)n6)CC5)CC4)C3)cc2)C(=O)N1` [Example 24, 2-(2-((cyclopropylmethyl)amino)pyridin-4-yl)-N-(3-(difluoromethyl)-1-((1r,4r)-4-(4-(1-(4-(2,4-dioxotetrahydropyrimidin-1(2H)-yl)phenyl)azetidine-3-carbonyl)piperazin-1-yl)cyclohexyl)-1H-pyrazol-4-yl)oxazole-4-carboxamide], the Dmax under setting [1] was found to be 98%. Besides, under setting [2], the DC50 was 2.8 nM.
